Assay: Nitric oxide release profile of NONOates (nitric oxide analyzer)
Format: physicochemical
Description: Using a Monitor Labs Model 8440 Nitric Oxide Analyzer, interfaced with an HP 3396 A Chromatography Integrator, the nitric oxide release from the above synthesized NONOates was measured. […] Teflon® flow meters were inserted at the beginning of the circuit just before entry into the analyzer, and a helium tank with regulator was connected to the first flow meter.
The release profile was performed by adding about 3 to about 8 mg of the NO donor molecules prepared above to 25 ml of phosphate-buffered saline (PBS) (pH 7.4) in an impinger bottle that was subjected to continuous stirring. Varying amounts of the lung surfactant Survanta was added to certain samples, as were the surfactants Tween® 20 and Tween® 80. Tween® is available from Fisher Scientific Company, Fair Lawn, N.J. Still in other examples, the NONOates were simply dissolved in THF. Although the NONOates are insoluble in aqueous solution, sonication pulverized the compound adequately to produce fine particles that increased the surface area of the compound allowing a suspension to form. Once the impinger bottle was assembled, it was held in a water sonicator bath and sonicated until the insoluble sample was pulverized into fine particles or an emulsion. The amount of liberated NO was determined by the daily or timely flushing of helium through the solution and into the analyzer. Typically, measurements were taken every 2-4 hours during the first 18 hours and then every 12 hours thereafter. Eventually, readings only needed to be taken every 24 hours as the end of the release profile was approached. Helium gas was flushed through the system at 12 psig and the first flow meter was set to 150 ml/min. The second flow meter was adjusted to allow maximum flow. The released data was then used to compile the release profiles represented in FIGS. 3-10. The release profiles as represented in FIGS. 3-10 depict NO release from the NONOates in nmol NO/mg NONOate versus time in hours.
Based on these release profiles, the half-life and % Release for each NONOate prepared above was calculated and is represented in Table I, which represents NO release in PBS at pH 7.4.

Compound: Dihexadecanylspermate-NONOate [DiHSNO]
- % Release (NO) (PBS, pH 7.4): about 7.4%

Compound: CC(C)CCC[C@@H](C)[C@H]1CC[C@H]2[C@@H]3CC=C4C[C@@H](OC(=O)CCN(CCCCN)[N+]([O-])=NO)CC[C@]4(C)[C@H]3CC[C@]12C [CPNO, Cholesterylputreanine-NONOate]
- half-life (1% survanta, half-life (NO release)): 62 h
- half-life (5% & 10% survanta, half-life (NO release)): 39 h
- half-life (5% tween 20, half-life (NO release)): 104 h
- half-life (10% tween 20, half-life (NO release)): 72 h
- half-life (NO release) (pbs, pH 7.4): about 60 hr
- half-life (pbs, pH 7.4, half-life (NO release)): 60 h
- half-life (thf, pH 1, half-life (NO release)): 21 h

— patent US6147068A, “Lipophilic polyamine esters for the site specific delivery of nitric oxide in pharmaceutical use” (The University of Akron, priority 1998, dated 2000)
